# Source: ChEMBL document CHEMBL5236565, “Design, synthesis, and biological evaluation of novel 2'-methyl-2'-fluoro-6-methyl-7-alkynyl-7-deazapurine nucleoside analogs as anti-Zika virus agents” (Eur J Med Chem, 2022)
# The source made the active and inactive calls. No cut-off for these calls is given here.
# Tested on: Vero
# Experiment: Downregulation of ZIKV E protein cleaved caspase 3 expression in African green monkey Vero cells at 5 to 25 uM measured after 48 hrs by Western blotting analysis
# Type: functional, cell-based
# Settings: Chlorocebus sabaeus, dose 5-25 µM
row,SMILES,Activity
1,Cc1ncnc2c1c(C#Cc1ccc(Br)c(F)c1)cn2[C@@H]1O[C@H](CO)[C@@H](O)[C@@]1(C)F,Active

# Tested on: Zika virus
# Experiment: Antiviral activity against ZIKV ZG-01 infected in African green monkey Vero cells assessed as reduction in viral induced cytopathic effect by measuring reduction in PFU measured after 4 days by neutral red staining based plaque assay
# Type: functional, organism-based
# Settings: ZG-01, Vero, 96 h
row,SMILES,EC50 [µM]
1,Cc1ncnc2c1c(C#Cc1ccc(Br)c(F)c1)cn2[C@@H]1O[C@H](CO)[C@@H](O)[C@@]1(C)F,3.1
2,NC(=O)c1ncn([C@@H]2O[C@H](CO)[C@@H](O)[C@H]2O)n1 [RIBAVIRIN],> 80

# Same assay, conditions: ZG-01, Vero, 96 h, time 4 day
row,SMILES,EC90 [µM]
1,Cc1ncnc2c1c(C#Cc1ccc(Br)c(F)c1)cn2[C@@H]1O[C@H](CO)[C@@H](O)[C@@]1(C)F,7.1
2,NC(=O)c1ncn([C@@H]2O[C@H](CO)[C@@H](O)[C@H]2O)n1 [RIBAVIRIN],> 80

# Tested on: A549
# Experiment: Cytotoxicity against human A549 cells assessed as cell growth inhibition measured after 24 hrs by MTT assay
# Type: functional
# Settings: not given
row,SMILES,CC50 [µM]
1,Cc1ncnc2c1c(C#Cc1ccc(Br)c(F)c1)cn2[C@@H]1O[C@H](CO)[C@@H](O)[C@@]1(C)F,> 50
2,NC(=O)c1ncn([C@@H]2O[C@H](CO)[C@@H](O)[C@H]2O)n1 [RIBAVIRIN],> 50

# Tested on: SNB-19
# Experiment: Cytotoxicity against human SNB-19 cells assessed as cell growth inhibition measured after 24 hrs by MTT assay
# Type: functional
# Settings: not given
row,SMILES,CC50 [µM]
1,Cc1ncnc2c1c(C#Cc1ccc(Br)c(F)c1)cn2[C@@H]1O[C@H](CO)[C@@H](O)[C@@]1(C)F,49.4
2,NC(=O)c1ncn([C@@H]2O[C@H](CO)[C@@H](O)[C@H]2O)n1 [RIBAVIRIN],485

# Target: NS5 (Zika virus, UniProt A0A143MHK7)
# Experiment: Binding affinity to N-terminal His-tagged recombinant ZIKV ZG-01 RdRp (272 to 903 residues) expressed in Escherichia coli rosetta by surface plasmon resonance assay
# Settings: not given
# Sequence of NS5 (A0A143MHK7 whole entry, the tested form may be a part): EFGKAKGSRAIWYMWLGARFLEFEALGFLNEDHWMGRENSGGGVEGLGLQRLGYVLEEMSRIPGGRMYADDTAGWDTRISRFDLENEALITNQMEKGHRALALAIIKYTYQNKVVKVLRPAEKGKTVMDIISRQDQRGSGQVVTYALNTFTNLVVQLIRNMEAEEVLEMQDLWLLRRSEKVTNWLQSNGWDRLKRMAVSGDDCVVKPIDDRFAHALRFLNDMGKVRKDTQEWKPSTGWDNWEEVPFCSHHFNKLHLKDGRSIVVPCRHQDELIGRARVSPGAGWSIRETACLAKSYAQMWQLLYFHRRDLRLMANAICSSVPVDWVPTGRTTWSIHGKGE
row,SMILES,Kd [µM]
1,Cc1ncnc2c1c(C#Cc1ccc(Br)c(F)c1)cn2[C@@H]1O[C@H](CO)[C@@H](O)[C@@]1(C)F,1.87

# Tested on: Huh-7
# Experiment: Cytotoxicity against human Huh-7 cells assessed as cell growth inhibition measured after 24 hrs by MTT assay
# Type: functional
# Settings: not given
row,SMILES,CC50 [µM]
1,Cc1ncnc2c1c(C#Cc1ccc(Br)c(F)c1)cn2[C@@H]1O[C@H](CO)[C@@H](O)[C@@]1(C)F,43.8
2,NC(=O)c1ncn([C@@H]2O[C@H](CO)[C@@H](O)[C@H]2O)n1 [RIBAVIRIN],513

# Tested on: A549
# Experiment: Induction of mitochondrial membrane potential loss in human A549 cells at 50 to 100 uM by JC-1 staining based fluorescence microscope
# Type: functional, cell-based
# Settings: dose 50-100 µM
row,SMILES,Activity
1,Cc1ncnc2c1c(C#Cc1ccc(Br)c(F)c1)cn2[C@@H]1O[C@H](CO)[C@@H](O)[C@@]1(C)F,inactive

# Tested on: Zika virus
# Experiment: Antiviral activity against ZIKV ZG-01 infected in human Huh-7 cells assessed as reduction in viral induced cytopathic effect by measuring reduction in PFU measured after 4 days by neutral red staining based plaque assay
# Type: functional, organism-based
# Settings: ZG-01, Huh-7, 96 h
row,SMILES,EC50 [µM]
1,Cc1ncnc2c1c(C#Cc1ccc(Br)c(F)c1)cn2[C@@H]1O[C@H](CO)[C@@H](O)[C@@]1(C)F,5.7
2,NC(=O)c1ncn([C@@H]2O[C@H](CO)[C@@H](O)[C@H]2O)n1 [RIBAVIRIN],14.1

# Same assay, conditions: ZG-01, Huh-7, 96 h, time 4 day
row,SMILES,EC90 [µM]
1,Cc1ncnc2c1c(C#Cc1ccc(Br)c(F)c1)cn2[C@@H]1O[C@H](CO)[C@@H](O)[C@@]1(C)F,16.4
2,NC(=O)c1ncn([C@@H]2O[C@H](CO)[C@@H](O)[C@H]2O)n1 [RIBAVIRIN],47.4

# Tested on: not listed separately
# Experiment: Cytotoxicity against African green monkey Vero cells assessed as cell growth inhibition measured after 24 hrs by MTT assay
# Type: toxicity, cell-based
# Settings: chlorocebus sabaeus
row,SMILES,CC50 at 24 h [µM]
1,Cc1ncnc2c1c(C#Cc1ccc(Br)c(F)c1)cn2[C@@H]1O[C@H](CO)[C@@H](O)[C@@]1(C)F,46.8
2,NC(=O)c1ncn([C@@H]2O[C@H](CO)[C@@H](O)[C@H]2O)n1 [RIBAVIRIN],470

# Tested on: Zika virus
# Experiment: Antiviral activity against ZIKV MR766 infected in human SNB-19 cells assessed as reduction in viral induced cytopathic effect by measuring reduction in PFU measured after 4 days by neutral red staining based plaque assay
# Type: functional, organism-based
# Settings: MR766, SNB-19, 96 h
row,SMILES,EC50 [µM]
1,Cc1ncnc2c1c(C#Cc1ccc(Br)c(F)c1)cn2[C@@H]1O[C@H](CO)[C@@H](O)[C@@]1(C)F,8.9
2,NC(=O)c1ncn([C@@H]2O[C@H](CO)[C@@H](O)[C@H]2O)n1 [RIBAVIRIN],> 80

# Same assay, conditions: MR766, SNB-19, 96 h, time 4 day
row,SMILES,EC90 [µM]
1,Cc1ncnc2c1c(C#Cc1ccc(Br)c(F)c1)cn2[C@@H]1O[C@H](CO)[C@@H](O)[C@@]1(C)F,19.8
2,NC(=O)c1ncn([C@@H]2O[C@H](CO)[C@@H](O)[C@H]2O)n1 [RIBAVIRIN],> 80

# Tested on: Zika virus
# Experiment: Antiviral activity against ZIKV MR766 infected in African green monkey Vero cells assessed as reduction in viral induced cytopathic effect by measuring reduction in PFU measured after 4 days by neutral red staining based plaque assay
# Type: functional, organism-based
# Settings: 96 h
row,SMILES,EC50 [µM]
1,Cc1ncnc2c1c(C#Cc1ccc(Br)c(F)c1)cn2[C@@H]1O[C@H](CO)[C@@H](O)[C@@]1(C)F,7.7
2,NC(=O)c1ncn([C@@H]2O[C@H](CO)[C@@H](O)[C@H]2O)n1 [RIBAVIRIN],> 80

# Same assay, conditions: 96 h, time 4 day
row,SMILES,EC90 [µM]
1,Cc1ncnc2c1c(C#Cc1ccc(Br)c(F)c1)cn2[C@@H]1O[C@H](CO)[C@@H](O)[C@@]1(C)F,18.6
2,NC(=O)c1ncn([C@@H]2O[C@H](CO)[C@@H](O)[C@H]2O)n1 [RIBAVIRIN],> 80

# Tested on: A549
# Experiment: Downregulation of ZIKV E protein cleaved caspase 3 expression in human A549 cells at 10 to 50 uM measured after 48 hrs by Western blotting analysis
# Type: functional, cell-based
# Settings: dose 10-50 µM
row,SMILES,Activity
1,NC(=O)c1ncn([C@@H]2O[C@H](CO)[C@@H](O)[C@H]2O)n1 [RIBAVIRIN],inactive

# Tested on: Vero
# Experiment: Downregulation of ZIKV E protein cleaved caspase 3 expression in African green monkey Vero cells at 10 to 50 uM measured after 48 hrs by Western blotting analysis
# Type: functional, cell-based
# Settings: Chlorocebus sabaeus, dose 10-50 µM
row,SMILES,Activity
1,NC(=O)c1ncn([C@@H]2O[C@H](CO)[C@@H](O)[C@H]2O)n1 [RIBAVIRIN],inactive

# Tested on: Zika virus
# Experiment: Antiviral activity against ZIKV MR766 infected in human Huh-7 cells assessed as reduction in viral induced cytopathic effect by measuring reduction in PFU measured after 4 days by neutral red staining based plaque assay
# Type: functional, organism-based
# Settings: MR766, Huh-7, 96 h
row,SMILES,EC50 [µM]
1,Cc1ncnc2c1c(C#Cc1ccc(Br)c(F)c1)cn2[C@@H]1O[C@H](CO)[C@@H](O)[C@@]1(C)F,6.1
2,NC(=O)c1ncn([C@@H]2O[C@H](CO)[C@@H](O)[C@H]2O)n1 [RIBAVIRIN],17.7

# Same assay, conditions: MR766, Huh-7, 96 h, time 4 day
row,SMILES,EC90 [µM]
1,Cc1ncnc2c1c(C#Cc1ccc(Br)c(F)c1)cn2[C@@H]1O[C@H](CO)[C@@H](O)[C@@]1(C)F,14.6
2,NC(=O)c1ncn([C@@H]2O[C@H](CO)[C@@H](O)[C@H]2O)n1 [RIBAVIRIN],51

# Tested on: A549
# Experiment: Downregulation of ZIKV E protein cleaved caspase 3 expression in human A549 cells at 2.5 to 25 uM by immunofluorescence analysis
# Type: functional, cell-based
# Settings: dose 2.5-25 µM
row,SMILES,Activity
1,Cc1ncnc2c1c(C#Cc1ccc(Br)c(F)c1)cn2[C@@H]1O[C@H](CO)[C@@H](O)[C@@]1(C)F,Active

# Tested on: A549
# Experiment: Downregulation of ZIKV E protein cleaved caspase 3 expression in human A549 cells at 5 to 25 uM by immunofluorescence analysis
# Type: functional, cell-based
# Settings: dose 5-25 µM
row,SMILES,Activity
1,NC(=O)c1ncn([C@@H]2O[C@H](CO)[C@@H](O)[C@H]2O)n1 [RIBAVIRIN],inactive

# Tested on: Zika virus
# Experiment: Antiviral activity against ZIKV MR766 infected in human A549 cells assessed as reduction in viral induced cytopathic effect by measuring reduction in PFU measured after 4 days by neutral red staining based plaque assay
# Type: functional, organism-based
# Settings: MR766, A549, 96 h
row,SMILES,EC50 [µM]
1,Cc1ncnc2c1c(C#Cc1ccc(Br)c(F)c1)cn2[C@@H]1O[C@H](CO)[C@@H](O)[C@@]1(C)F,6.4
2,NC(=O)c1ncn([C@@H]2O[C@H](CO)[C@@H](O)[C@H]2O)n1 [RIBAVIRIN],38.1

# Same assay, conditions: MR766, A549, 96 h, time 4 day
row,SMILES,EC90 [µM]
1,Cc1ncnc2c1c(C#Cc1ccc(Br)c(F)c1)cn2[C@@H]1O[C@H](CO)[C@@H](O)[C@@]1(C)F,18
2,NC(=O)c1ncn([C@@H]2O[C@H](CO)[C@@H](O)[C@H]2O)n1 [RIBAVIRIN],75.9

# Tested on: A549
# Experiment: Downregulation of ZIKV E protein cleaved caspase 3 expression in human A549 cells at 5 to 25 uM measured after 48 hrs by Western blotting analysis
# Type: functional, cell-based
# Settings: dose 5-25 µM
row,SMILES,Activity
1,Cc1ncnc2c1c(C#Cc1ccc(Br)c(F)c1)cn2[C@@H]1O[C@H](CO)[C@@H](O)[C@@]1(C)F,Active

# Tested on: Zika virus
# Experiment: Antiviral activity against ZIKV ZG-01 infected in human A549 cells assessed as reduction in viral induced cytopathic effect by measuring reduction in PFU measured after 4 days by neutral red staining based plaque assay
# Type: functional, organism-based
# Settings: ZG-01, A549, 96 h
row,SMILES,EC50 [µM]
1,Cc1ncnc2c1c(C#Cc1ccc(Br)c(F)c1)cn2[C@@H]1O[C@H](CO)[C@@H](O)[C@@]1(C)F,2.8
2,NC(=O)c1ncn([C@@H]2O[C@H](CO)[C@@H](O)[C@H]2O)n1 [RIBAVIRIN],36.1

# Same assay, conditions: ZG-01, A549, 96 h, time 4 day
row,SMILES,EC90 [µM]
1,Cc1ncnc2c1c(C#Cc1ccc(Br)c(F)c1)cn2[C@@H]1O[C@H](CO)[C@@H](O)[C@@]1(C)F,6.8
2,NC(=O)c1ncn([C@@H]2O[C@H](CO)[C@@H](O)[C@H]2O)n1 [RIBAVIRIN],70.3

# Tested on: Zika virus
# Experiment: Antiviral activity against ZIKV ZG-01 infected in human SNB-19 cells assessed as reduction in viral induced cytopathic effect by measuring reduction in PFU measured after 4 days by neutral red staining based plaque assay
# Type: functional, organism-based
# Settings: ZG-01, SNB-19, 96 h
row,SMILES,EC50 [µM]
1,Cc1ncnc2c1c(C#Cc1ccc(Br)c(F)c1)cn2[C@@H]1O[C@H](CO)[C@@H](O)[C@@]1(C)F,6.4
2,NC(=O)c1ncn([C@@H]2O[C@H](CO)[C@@H](O)[C@H]2O)n1 [RIBAVIRIN],> 80

# Same assay, conditions: ZG-01, SNB-19, 96 h, time 4 day
row,SMILES,EC90 [µM]
1,Cc1ncnc2c1c(C#Cc1ccc(Br)c(F)c1)cn2[C@@H]1O[C@H](CO)[C@@H](O)[C@@]1(C)F,16.6
2,NC(=O)c1ncn([C@@H]2O[C@H](CO)[C@@H](O)[C@H]2O)n1 [RIBAVIRIN],> 80
